Where two headings read alike, the source gives them in different places. Marks after values point to notes of the source that are not given here. Square brackets hold non-standard residues; d marks the D form. Peptide text beside a SMILES is read from it. Nle = CCCC[C@H](N)C(=O)O
Experiments:
uPAR = molecular target: T1, uPAR (Homo sapiens, UniProt Q03405); assay: IC 50 (uM)^2
T1 construct: sUPAR, soluble truncated form of the urokinase receptor; made in house; host or cells: baculovirus-infected Sf9 insect cells
T1 sequence (Q03405 whole entry, looked up, the tested form may be a part): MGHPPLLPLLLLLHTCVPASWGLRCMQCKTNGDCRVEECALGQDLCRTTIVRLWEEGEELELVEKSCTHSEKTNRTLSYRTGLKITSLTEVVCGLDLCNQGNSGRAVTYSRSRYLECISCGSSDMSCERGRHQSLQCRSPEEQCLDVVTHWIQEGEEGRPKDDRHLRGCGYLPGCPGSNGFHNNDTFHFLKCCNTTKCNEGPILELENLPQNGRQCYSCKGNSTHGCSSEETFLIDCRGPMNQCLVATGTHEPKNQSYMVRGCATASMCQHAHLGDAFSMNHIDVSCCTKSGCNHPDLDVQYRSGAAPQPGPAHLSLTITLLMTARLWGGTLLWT
Description: Table printed on a drawing sheet, FIG. 6
Head of the field: IC 50 (uM)^2
The patent's description of the figure: FIG 6: Table. The table of FIG 6 depicts the sequences (SEQ ID NOS:12–17), phage yields, and IC50s in uPAR binding assays for selected phage peptides. Legend: 1. Individual phage were incubated with biotinylated suPAR with and without 10 μM uPA1–48 on streptavidin coated wells as described herein. The background yields of all phage without SuPAR in the wells ranged from 0.002–0.025%. Errors in yield are in the range 50%. 2. Apparent inhibition constant of the synthetic peptide in the uPAR receptor binding assay; errors are in the range of 20%. 3. NT=not determined because of peptide insolubility. 4. Clone 20 and 13–32 peptides were as described previously.
First copying reader's note: The head is printed shifted: 'Phage Yield' covers the -1-48 and +1-48 columns and 'IC 50 (uM)' belongs to the last column; the raised marks 1-4 refer to a legend that is not printed on the sheet.
Where the first naming reader finds the target: description_of_the_figure: IC50s in uPAR binding assays for selected phage peptides

soluble uPAR [1] = molecular target: T2, soluble uPAR (Homo sapiens, UniProt Q03405); type: binding; set-up: sUPAR, soluble truncated form of the urokinase receptor; made in house; host or cells: baculovirus-infected Sf9 insect cells; details: for % Inhibition 2.5 uM: 2500.0; for % Inhibition 5 uM: 5000.0
T2 sequence (Q03405 23-305 limits assumed): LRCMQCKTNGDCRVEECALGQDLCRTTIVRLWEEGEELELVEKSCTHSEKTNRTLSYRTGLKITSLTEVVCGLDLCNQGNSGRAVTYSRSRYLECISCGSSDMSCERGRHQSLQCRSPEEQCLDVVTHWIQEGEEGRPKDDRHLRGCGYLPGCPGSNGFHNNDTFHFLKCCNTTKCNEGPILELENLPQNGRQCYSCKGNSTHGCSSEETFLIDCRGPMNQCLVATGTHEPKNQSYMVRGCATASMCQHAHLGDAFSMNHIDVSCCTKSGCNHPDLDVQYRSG
Description: Streptavidin, 100 μl (0.1 mg/ml) in 50 mM Na2CO3, pH 9.6, was added to MaxiSorp wells (Nunc), incubated overnight at 4 C, and then washed with PBS/BSA. Biotinylated sUPAR (25 nM in PBS/BSA) was added to the wells and incubated for 2 hours at room temperature prior to washing. Competitive peptide inhibitors were added to the wells immediately prior to addition of the bacteriophage. The wells were incubated for one hour at room temperature, then washed and bound bacteriophage eluted with 6M urea in 0.1N HCl, pH 2.5. After 15 minutes, the urea eluate was brought to neutral pH by addition of 2M Tris base and the bacteriophage titers of input stocks and elutions measured by plaque formation assay. Results were expressed as the percent of input bacteriophage which bind to the wells. Alternatively, the amount of bacteriophage was determined in an ELISA where phage were preincubated with HRP-conjugated anti-M13 antibody for 30 minutes at room temperature before dispensing into wells prepared as above and incubated for one hour at room temperature. The final anti-M13 conjugate dilution was 1:4000. After washing, TMB substrate (100 μl/well) was added and color development was stopped with 0.8N H2SO4 (100 μl/well). The absorbance at 450 nm was then measured in a 96 well plate reader.
In a uPAR binding assay, the following analogs were tested in a competition with phage displaying either peptide 25 or peptide 9. The analogs comprise both natural and unnatural amino acids.
The analogs were tested in an assay utilizing soluble uPAR, similar to the method described in Example 2. The analogs were tested for their ability to compete with phage displaying either peptide 9 or peptide 25. Analogs 3–61 were tested in competition with peptide 25. Analogs 62–96 were tested in competition with peptide 9. Approximately 10^8 plaque forming units of the phage were used in the assay.
The analogs were tested at a concentration at 40 μM in the uPAR competition assay with phage displaying peptide 25. The results below show which analogs were active.
Analogs 31–61 were tested for their ability to compete with phage displaying peptide 25. The active analogs were tested further at two concentrations, 5 μM and 2.5 μM. These concentrations were calculated based on the synthesis reactions. However, the sequences * were further tested and determined to contain high amounts of amino acids and the quantity tested could have been higher than 5 μM or 2.5 μM.

suPAR = molecular target: T3, suPAR (Homo sapiens, UniProt Q03405); assay: suPAR binding assay (competition for uPA1–48 binding); details: synthetic peptide
T3 construct: sUPAR, soluble truncated form of the urokinase receptor; made in house; host or cells: baculovirus-infected Sf9 insect cells
T3 sequence (Q03405 23-305 limits assumed): as above
Description: Twenty-eight independent bacteriophage were isolated and the random peptide encoding DNA segments sequenced. […] This is in contrast to previous results of affinity selection on uPAR alone, where the majority of selected bacteriophage bound with substantial yield as described in Goodson et al, Proc.Natl.Acad.Sci. USA 91: 7129–7133 (1994). The yields of these four bacteriophage were determined on suPAR in the presence and absence of uPA1–48. In addition, the encoded peptides were synthesized and tested as competitors in a suPAR binding assay as described in Stratton-Thomas et al, Prot.Eng. 8: 463–470 (1995), and Kaufman et al Anal.Biochem. 211: 261–266 (1993).

[2] = molecular target: T4, uPA1–48:uPAR complexes binding to vitronectin (Homo sapiens, UniProt Q03405); assay: Vitronectin binding assay (ELISA); details: 20 nM biotinylated suPAR, 20 nM uPA1–48
T4 construct: sUPAR, soluble truncated form of the urokinase receptor; made in house; host or cells: suPAR: baculovirus-infected Sf9 cells; uPA1-48: recombinant yeast; vitronectin: purified from human plasma
T4 sequence (Q03405 23-305 limits assumed, one chain of several): as the sequence (Q03405 23-305 limits assumed) above
Description: Vitronectin was purified from human plasma by the method of Yatohgo et al, Cello Struct.and Funct. 13: 281–292 (1988). Purified vitronectin was diluted to 20 μg/ml in PBS containing 1 mM CaCl2 and 0.5 mM MgCl2, dispensed at 50 μl/well into Immulon II wells (Dynatech, Chantilly, Va.), incubated overnight at 4° C. and washed with PBS/BSA. Biotinylated sUPAR was diluted to 20 nM in PBS/BSA, incubated with or without test ligand for 30 minutes at room temperature (22° C.), dispensed at 100 μl/well and incubated for 90 minutes. Wells were then washed and horseradish peroxidase (HRP)-conjugated streptavidin was added at 0.4 μg/ml in PBS/2% BSA for 1 hour followed by washing and addition of 100 μl/well TMB substrate. The color development was stopped with 100 μl of 0.8N H2SO4 and the absorbance at 450 nm measured in a 96 well plate reader (Dynatech, Chantilly, Va.). Antagonistic effects of test ligands were measured as described above except the ligands were incubated with 20 nM biotinylated suPAR in the presence of 20 nM uPA1–48.
In order to analyze the effects of the various peptide ligands on the uPAR:vitronectin interaction, we developed an in vitro ELISA based assay for this interaction, in which biotinylated suPAR and uPA1–48 bind to immobilized, urea purified vitronectin, and the bound sUPAR is detected with HRP conjugated streptavidin. Under the conditions of the assay binding of biotinylated uPAR to vitronectin is strictly dependent on uPA1–48, as shown in FIG. 1.

sUPAR domain 2–3 (D23) = molecular target: T5, sUPAR domain 2–3 (D23) (Homo sapiens, UniProt Q03405); assay: Bacteriophage binding to sUPAR domain 2/3; details: phage-displayed peptide
T5 construct: domains 2 and 3 (amino acids 93–313); made in house; host or cells: baculovirus infected Sf9 insect cells
T5 sequence (Q03405 115-335): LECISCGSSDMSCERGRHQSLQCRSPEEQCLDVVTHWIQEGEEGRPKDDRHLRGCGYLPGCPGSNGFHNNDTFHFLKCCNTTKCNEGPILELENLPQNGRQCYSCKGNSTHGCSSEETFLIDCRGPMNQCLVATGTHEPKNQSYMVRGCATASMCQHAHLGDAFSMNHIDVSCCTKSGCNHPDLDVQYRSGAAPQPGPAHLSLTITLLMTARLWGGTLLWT
Description: FIG. 5. Bacteriophage binding to sUPAR domain 2/3. Phage were added to wells containing sUPAR domain 2/3 immobilized by its epitope tag via protein G and monoclonal antibody to the epitope tag. Wells containing protein G and antibody but no domain 2/3 were included to determine nonspecific phage binding. Urea-eluted phage and the input stocks were titered by plaque formation assay. Results were single point determinations calculated as a percent of the input titer and were repeated in three separate experiments.
It was also shown by the inventors that bacteriophage bound to sUPAR domain 2–3fragment. Protein G, 100μl, 1 mg/ml in 50 mM Na2CO3, pH9.6, was added to MaxiSorp wells, incubated overnight at 4° C. and then washed with PBS/BSA. Fifty μl of monoclonal antibody to the epitope tag EYMPME (SEQ ID NO: 18) was added at 1 mg/ml in PBS/BSA and incubated for 2 hours at room temperature. The wells were washed, recombinant sUPAR domain 2–3 (1.7 μM in PBS/BSA) was added and incubated for 1.5 hours at room temperature. The wells were washed prior to the addition of bacteriophage (approximately 10^8 pfu), and then treated as described in the previous section for binding to suPAR.

soluble uPAR [3] = molecular target: T2, soluble uPAR
Description: The analogs were tested for their ability to compete with phage displaying either peptide 9 or peptide 25. […] Approximately 10^8 plaque forming units of the phage were used in the assay.

Molecule	% Inhibition 2.5 uM (soluble uPAR [1])	% Inhibition 5 uM (soluble uPAR [1]) [%]	also measured
CLNGGTAVSNKYFSNLHWC [13-32^4]	–	–	IC50 (uPAR): 0.25 µM
H-AEPMPHSLNFSQYLWYT-NH2 [20^4]	–	–	IC50 (uPAR): 0.01 µM
CCCC[C@H](NC(=O)[C@H](Cc1ccc(O)cc1)NC(=O)CNC(=O)[C@H](CC(C)C)NC(=O)[C@H](CO)NC(=O)[C@H](CC(C)C)NC(=O)[C@H](Cc1c[nH]cn1)NC(=O)[C@H](Cc1c[nH]cn1)NC(=O)[C@H](Cc1ccc(O)cc1)NC(=O)[C@@H](NC(=O)[C@H](CO)NC(=O)[C@H](CCC(=O)O)NC(=O)[C@H](C)N)[C@@H](C)O)C(=O)N[C@@H](Cc1ccc(O)cc1)C(=O)N[C@H](C(=O)N[C@@H](CC(C)C)C(=O)N[C@@H](CC(N)=O)C(N)=O)[C@@H](C)O [Analog 44, AESTYHHLSLGYJYTLN] (H-AESTYHHLSLGY[Nle]YTLN-NH2)	84* %	91	–
H-AESTYHHLSLGYMYTLN-NH2 [compound 25]	–	–	IC50 (uPAR): > 10 µM
AE PMPHSLNFSQYAWYT [analog of clone 20 peptide, reference compound]	–	–	competition for uPA1–48 binding to sUPAR / receptor binding activity (in words) (suPAR): greatly reduced receptor binding activity; effect on binding of uPA1–48:uPAR complexes to vitronectin [2]: did not affect binding to vitronectin
H-AESTFHHLSLGYMYTLN-NH2 [Analog 34]	38%	47	–
H-AESTYHHLSLGYVYTLN-NH2 [Analog 43]	63%	82	–
CSCC[C@H](NC(=O)[C@H](Cc1ccc(O)cc1)NC(=O)CNC(=O)[C@H](CC(C)C)NC(=O)[C@@H](CO)NC(=O)[C@H](CC(C)C)NC(=O)[C@H](Cc1c[nH]cn1)NC(=O)[C@H](Cc1c[nH]cn1)NC(=O)[C@H](Cc1ccc(O)cc1)NC(=O)[C@@H](NC(=O)[C@H](CO)NC(=O)[C@H](CCC(=O)O)NC(=O)[C@H](C)N)[C@@H](C)O)C(=O)N[C@@H](Cc1ccc(O)cc1)C(=O)N[C@H](C(=O)N[C@@H](CC(C)C)C(=O)N[C@@H](CC(N)=O)C(N)=O)[C@@H](C)O [Analog 54] (H-AESTYHHL[dS]LGYMYTLN-NH2)	73%	86	–
uPA13–32: amino acids 13–32 of human urokinase with Cys19 converted to Ala (CLNGGTAVSNKYFSNIHWCN) [reference compound]	–	–	competition for uPA1–48 binding to sUPAR / receptor binding activity (in words) (suPAR): compete directly for uPA1–48 binding; effect on binding of uPA1–48:uPAR complexes to vitronectin [2]: reduce binding; bacteriophage binding to immobilized D23 versus sUPAR (sUPAR domain 2–3 (D23)): bind signficantly only to intact sUPAR
H-AEFFKLGPNGYVYLHSA-NH2 [peptide 9]	–	–	bacteriophage binding to immobilized D23 versus sUPAR (sUPAR domain 2–3 (D23)): bind equivalently to the D23 fragment and full-length receptor; % Inhibition 2.5 uM (soluble uPAR [3]; 2500.0): 59%; % Inhibition 5 uM (soluble uPAR [3]; 5000.0): 71%
CSCC[C@H](NC(=O)[C@H](Cc1ccc(O)cc1)NC(=O)CNC(=O)[C@@H](CC(C)C)NC(=O)[C@H](CO)NC(=O)[C@H](CC(C)C)NC(=O)[C@H](Cc1c[nH]cn1)NC(=O)[C@H](Cc1c[nH]cn1)NC(=O)[C@H](Cc1ccc(O)cc1)NC(=O)[C@@H](NC(=O)[C@H](CO)NC(=O)[C@H](CCC(=O)O)NC(=O)[C@H](C)N)[C@@H](C)O)C(=O)N[C@@H](Cc1ccc(O)cc1)C(=O)N[C@H](C(=O)N[C@@H](CC(C)C)C(=O)N[C@@H](CC(N)=O)C(N)=O)[C@@H](C)O [Analog 55] (H-AESTYHHLS[dL]GYMYTLN-NH2)	56%	80	–
somatomedin B domain of vitronectin: recombinant somatomedin B domain of vitronectin (DQESCKGRCTEGFNVDKKCQCDELCSYYQSCCTDYTAECKPQVT)	–	–	effect on binding of uPA1–48:uPAR complexes to vitronectin [2]: blocked
CSCC[C@H](NC(=O)[C@H](Cc1ccc(O)cc1)NC(=O)CNC(=O)[C@H](CC(C)C)NC(=O)[C@H](CO)NC(=O)[C@H](CC(C)C)NC(=O)[C@H](Cc1c[nH]cn1)NC(=O)[C@H](Cc1c[nH]cn1)NC(=O)[C@H](Cc1ccc(O)cc1)NC(=O)[C@@H](NC(=O)[C@H](CO)NC(=O)[C@H](CCC(=O)O)NC(=O)[C@H](C)N)[C@@H](C)O)C(=O)N[C@@H](Cc1ccc(O)cc1)C(=O)N[C@H](C(=O)N[C@@H](CC(C)C)C(=O)N[C@H](CC(N)=O)C(N)=O)[C@@H](C)O [Analog 61] (H-AESTYHHLSLGYMYTL[dN]-NH2)	32%	55	–

From patent US7094752B2 (Chiron Corporation, priority 1997, dated 2006)
